# Measurements: PubChem BioAssay (NCI)
#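 Where inhibition never reached the appropriate level, the endpoint shown equals the highest concentration tested. Otherwise, values were interpolated linearly from a five-concentration, 48-hour dose response in 96-well plates. TGI: concentration producing complete growth inhibition.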
# What was measured:
# Test in all cases: inhibition of tumour cell growth, NCI panel, 48 h
# NCI/ADR-RES ovarian = system: NCI/ADR-RES ovarian
# OVCAR-4 ovarian = system: OVCAR-4 ovarian
# MDA-MB-231 breast = system: MDA-MB-231 breast
# HCT-116 colon = system: HCT-116 colon
# IGROV1 ovarian = system: IGROV1 ovarian
# UO-31 renal = system: UO-31 renal
# EKVX NSCLC = system: EKVX NSCLC
# A498 renal = system: A498 renal
# A549 NSCLC = system: A549 NSCLC
# SF-295 CNS = system: SF-295 CNS
# NCI-H23 lung = system: NCI-H23 lung
# HCC-2998 colon = system: HCC-2998 colon
# UACC-62 melanoma = system: UACC-62 melanoma
# NCI-H522 lung = system: NCI-H522 lung
# HCT-15 colon = system: HCT-15 colon
# CAKI-1 renal = system: CAKI-1 renal
# SK-MEL-5 melanoma = system: SK-MEL-5 melanoma
# SK-OV-3 ovarian = system: SK-OV-3 ovarian
# NCI-H460 lung = system: NCI-H460 lung
# SW-620 colon = system: SW-620 colon
# OVCAR-8 ovarian = system: OVCAR-8 ovarian
# SR leukemia = system: SR leukemia
# SK-MEL-2 melanoma = system: SK-MEL-2 melanoma
# MALME-3M melanoma = system: MALME-3M melanoma
# MOLT-4 leukemia = system: MOLT-4 leukemia
# DU-145 prostate = system: DU-145 prostate
# TK-10 renal = system: TK-10 renal
# K-562 leukemia = system: K-562 leukemia
# COLO 205 colon = system: COLO 205 colon
# SF-539 CNS = system: SF-539 CNS
# SK-MEL-28 melanoma = system: SK-MEL-28 melanoma
# UACC-257 melanoma = system: UACC-257 melanoma
# LOX IMVI melanoma = system: LOX IMVI melanoma
# T-47D breast = system: T-47D breast
# CCRF-CEM leukemia = system: CCRF-CEM leukemia
# U251 CNS = system: U251 CNS
# MDA-MB-435 = system: MDA-MB-435
# BT-549 breast = system: BT-549 breast
# HS 578T breast = system: HS 578T breast
# MCF7 breast = system: MCF7 breast
# 786-0 renal = system: 786-0 renal
# ACHN renal = system: ACHN renal
# HOP-92 NSCLC = system: HOP-92 NSCLC
# HOP-62 NSCLC = system: HOP-62 NSCLC
# HT29 colon = system: HT29 colon
# PC-3 prostate = system: PC-3 prostate
# SF-268 CNS = system: SF-268 CNS
# NCI-H226 lung = system: NCI-H226 lung
# KM12 colon = system: KM12 colon
# SN12C renal = system: SN12C renal
# SNB-19 CNS = system: SNB-19 CNS
# MDA-N = system: MDA-N
# M14 melanoma = system: M14 melanoma
# SNB-75 CNS = system: SNB-75 CNS
# OVCAR-5 ovarian = system: OVCAR-5 ovarian
# HL-60(TB) leukemia = system: HL-60(TB) leukemia
# OVCAR-3 ovarian = system: OVCAR-3 ovarian
# RXF 393 renal = system: RXF 393 renal
# RPMI-8226 leukemia = system: RPMI-8226 leukemia
structure (smiles),measurement,setting,value
CCCNc1[nH]c(C(=O)c2ccccc2)c(N)c1C(=S)Nc1ccccc1,TGI,NCI/ADR-RES ovarian,> 100 µM
same,TGI,OVCAR-4 ovarian,> 100 µM
same,TGI,MDA-MB-231 breast,> 100 µM
same,TGI,HCT-116 colon,> 100 µM
same,TGI,IGROV1 ovarian,> 100 µM
same,TGI,UO-31 renal,> 100 µM
same,TGI,EKVX NSCLC,> 100 µM
same,TGI,A498 renal,> 100 µM
same,TGI,A549 NSCLC,> 100 µM
same,TGI,SF-295 CNS,> 100 µM
same,TGI,NCI-H23 lung,> 100 µM
same,TGI,HCC-2998 colon,> 100 µM
same,TGI,UACC-62 melanoma,> 100 µM
same,TGI,NCI-H522 lung,> 100 µM
same,TGI,HCT-15 colon,> 100 µM
same,TGI,CAKI-1 renal,> 100 µM
same,TGI,SK-MEL-5 melanoma,> 100 µM
same,TGI,SK-OV-3 ovarian,> 100 µM
same,TGI,NCI-H460 lung,> 100 µM
same,TGI,SW-620 colon,> 100 µM
same,TGI,OVCAR-8 ovarian,> 100 µM
same,TGI,SR leukemia,> 100 µM
same,TGI,SK-MEL-2 melanoma,> 100 µM
same,TGI,MALME-3M melanoma,> 100 µM
same,TGI,MOLT-4 leukemia,> 100 µM
same,TGI,DU-145 prostate,> 100 µM
same,TGI,TK-10 renal,> 100 µM
same,TGI,K-562 leukemia,> 100 µM
same,TGI,COLO 205 colon,> 100 µM
same,TGI,SF-539 CNS,> 100 µM
same,TGI,SK-MEL-28 melanoma,> 100 µM
same,TGI,UACC-257 melanoma,> 100 µM
same,TGI,LOX IMVI melanoma,> 100 µM
same,TGI,T-47D breast,> 100 µM
same,TGI,CCRF-CEM leukemia,> 100 µM
same,TGI,U251 CNS,> 100 µM
same,TGI,MDA-MB-435,> 100 µM
same,TGI,BT-549 breast,> 100 µM
same,TGI,HS 578T breast,> 100 µM
same,TGI,MCF7 breast,> 100 µM
same,TGI,786-0 renal,> 100 µM
same,TGI,ACHN renal,> 100 µM
same,TGI,HOP-92 NSCLC,> 100 µM
same,TGI,HOP-62 NSCLC,> 100 µM
same,TGI,HT29 colon,> 100 µM
same,TGI,PC-3 prostate,> 100 µM
same,TGI,SF-268 CNS,> 100 µM
same,TGI,NCI-H226 lung,> 100 µM
same,TGI,KM12 colon,> 100 µM
same,TGI,SN12C renal,> 100 µM
same,TGI,SNB-19 CNS,> 100 µM
same,TGI,MDA-N,> 100 µM
same,TGI,M14 melanoma,> 100 µM
same,TGI,SNB-75 CNS,> 100 µM
same,TGI,OVCAR-5 ovarian,> 100 µM
same,TGI,HL-60(TB) leukemia,> 100 µM
same,TGI,OVCAR-3 ovarian,> 100 µM
Cc1ccc(S(=O)(=O)N(CCN2C(=O)c3ccccc3C2=O)c2cc3c4c(c2)Oc2cc(N(CCN5C(=O)c6ccccc6C5=O)S(=O)(=O)c5ccc(C)cc5)cc5c2C4(C)c2c(cc(N(CCN4C(=O)c6ccccc6C4=O)S(=O)(=O)c4ccc(C)cc4)cc2O5)O3)cc1,TGI,NCI/ADR-RES ovarian,> 100 µM
same,TGI,OVCAR-4 ovarian,> 100 µM
same,TGI,MDA-MB-231 breast,45.8 µM
same,TGI,HCT-116 colon,> 100 µM
same,TGI,IGROV1 ovarian,> 100 µM
same,TGI,UO-31 renal,> 100 µM
same,TGI,EKVX NSCLC,> 100 µM
same,TGI,A549 NSCLC,> 100 µM
same,TGI,SF-295 CNS,> 100 µM
same,TGI,UACC-62 melanoma,> 100 µM
same,TGI,NCI-H522 lung,> 100 µM
same,TGI,HCT-15 colon,> 100 µM
same,TGI,CAKI-1 renal,> 100 µM
same,TGI,SK-MEL-5 melanoma,> 100 µM
same,TGI,SK-OV-3 ovarian,> 100 µM
same,TGI,NCI-H460 lung,> 100 µM
same,TGI,SW-620 colon,> 100 µM
same,TGI,OVCAR-8 ovarian,> 100 µM
same,TGI,SR leukemia,> 100 µM
same,TGI,SK-MEL-2 melanoma,> 100 µM
same,TGI,MOLT-4 leukemia,> 100 µM
same,TGI,DU-145 prostate,> 100 µM
same,TGI,TK-10 renal,> 100 µM
same,TGI,K-562 leukemia,> 100 µM
same,TGI,RXF 393 renal,> 100 µM
same,TGI,COLO 205 colon,> 100 µM
same,TGI,SF-539 CNS,> 100 µM
same,TGI,SK-MEL-28 melanoma,> 100 µM
same,TGI,UACC-257 melanoma,> 100 µM
same,TGI,LOX IMVI melanoma,> 100 µM
same,TGI,T-47D breast,> 100 µM
same,TGI,CCRF-CEM leukemia,> 100 µM
same,TGI,U251 CNS,> 100 µM
same,TGI,MDA-MB-435,> 100 µM
same,TGI,BT-549 breast,> 100 µM
same,TGI,HS 578T breast,> 100 µM
same,TGI,MCF7 breast,> 100 µM
same,TGI,786-0 renal,> 100 µM
same,TGI,ACHN renal,> 100 µM
same,TGI,HOP-62 NSCLC,> 100 µM
same,TGI,HT29 colon,> 100 µM
same,TGI,PC-3 prostate,> 100 µM
same,TGI,SF-268 CNS,> 100 µM
same,TGI,NCI-H226 lung,> 100 µM
same,TGI,RPMI-8226 leukemia,> 100 µM
same,TGI,KM12 colon,> 100 µM
same,TGI,SN12C renal,> 100 µM
same,TGI,SNB-19 CNS,> 100 µM
same,TGI,MDA-N,> 100 µM
same,TGI,M14 melanoma,> 100 µM
same,TGI,SNB-75 CNS,> 100 µM
same,TGI,OVCAR-5 ovarian,> 100 µM
same,TGI,HL-60(TB) leukemia,> 100 µM
same,TGI,OVCAR-3 ovarian,> 100 µM
